System: rice
Test: Low temperature assay on rice seedlings
Type: in vivo
Procedure: According to a low temperature assay, we measured parameters including plant height, number of leaf, area of leaf, number of tiller, weight of root at low temperature to completely determine effects of the natural brassinolide analogues on the resistance to low temperature of a plant.
The natural brassinolide analogues, BR1, BR2, BR3, BR4, BR5 and BR6, used herein, were those prepared by the method of Example 1. Respectively the analogues were dissolved into 95% (V/V) ethanol solution, and then diluted with pure water to 1 mg/L, 0.1 mg/L, 0.01 mg/L, 0.001 mg/L and 0.0001 mg/L. In addition, pure water was used as a control.
After rice seeds were disinfected by using 5% sodium hypochlorite solution treatment, they were rinsed with distilled water until their pH>7, placed into a petri dish in a dark incubator, and cultured by using water at 30° C.±2° C. for 9 days. Then respectively the nine-day-old etiolated seedlings of rice were immersed in the above solutions containing different concentrations of the natural brassinolide analogues or pure water, and cultured at the temperature of 1° C., 2° C., 3° C., 4° C. and 5° C. for 24 hr. The parameters including plant height, area of leaf and weight of root after 3, 6, 9 and 12 days and number of leaf and number of tiller after 12 days were measured.

In the case of `CC(C)(O)CC[C@@H](O)[C@](C)(O)[C@H]1CC[C@@]2(O)[C@@H]3CC(=O)[C@@H]4C[C@@H](O)[C@@H](O)C[C@]4(C)[C@H]3CC[C@]12C` [BR6], the Number of leaf (0.1 mg/l, 4 °C, 12 days) is reported as 3, the Number of tiller (0.1 mg/l, 4 °C, 12 days) is reported as 2 and the Weight of root (0.1 mg/l, 4 °C, 12 days) is reported as 3.1 g. For the same molecule, the Area of leaf (0.1 mg/l, 5 °C, 3 days) was 11.1 cm^2, the Height (0.1 mg/l, 5 °C, 3 days) was 7.7 cm and the Weight of root (0.1 mg/l, 5 °C, 3 days) was 2.9 g. It also gave an Area of leaf (0.1 mg/l, 5 °C, 6 days) of 13.9 cm^2, a Height (0.1 mg/l, 5 °C, 6 days) of 7.8 cm and a Weight of root (0.1 mg/l, 5 °C, 6 days) of 3.2 g. It also gave an Area of leaf (0.1 mg/l, 5 °C, 9 days) of 17.8 cm^2, a Height (0.1 mg/l, 5 °C, 9 days) of 8.4 cm and a Weight of root (0.1 mg/l, 5 °C, 9 days) of 3.5 g. For the same molecule, the Area of leaf (0.1 mg/l, 5 °C, 12 days) was 18.9 cm^2, the Height (0.1 mg/l, 5 °C, 12 days) was 8.6 cm and the Number of leaf (0.1 mg/l, 5 °C, 12 days) was 3. The Number of tiller (0.1 mg/l, 5 °C, 12 days) was 2, the Weight of root (0.1 mg/l, 5 °C, 12 days) was 4 g and the Area of leaf (1 mg/l, 1 °C, 3 days) was 10 cm^2. For the same molecule, the Height (1 mg/l, 1 °C, 3 days) was 7.1 cm, the Weight of root (1 mg/l, 1 °C, 3 days) was 2.8 g and the Area of leaf (1 mg/l, 1 °C, 6 days) was 11.2 cm^2. For the same molecule, the Height (1 mg/l, 1 °C, 6 days) was 7.2 cm, the Weight of root (1 mg/l, 1 °C, 6 days) was 3.1 g and the Area of leaf (1 mg/l, 1 °C, 9 days) was 12.4 cm^2. The Height (1 mg/l, 1 °C, 9 days) was 7.3 cm, the Weight of root (1 mg/l, 1 °C, 9 days) was 3.4 g and the Area of leaf (1 mg/l, 1 °C, 12 days) was 12.8 cm^2. The Height (1 mg/l, 1 °C, 12 days) was 7.3 cm, the Number of leaf (1 mg/l, 1 °C, 12 days) was 3 and the Number of tiller (1 mg/l, 1 °C, 12 days) was 3. For the same molecule, the Weight of root (1 mg/l, 1 °C, 12 days) was 3.9 g, the Area of leaf (1 mg/l, 2 °C, 3 days) was 10.2 cm^2 and the Height (1 mg/l, 2 °C, 3 days) was 7.1 cm. The Weight of root (1 mg/l, 2 °C, 3 days) was 2.8 g, the Area of leaf (1 mg/l, 2 °C, 6 days) was 11.7 cm^2 and the Height (1 mg/l, 2 °C, 6 days) was 7.2 cm. For the same molecule, the Weight of root (1 mg/l, 2 °C, 6 days) was 3.0 g, the Area of leaf (1 mg/l, 2 °C, 9 days) was 12.6 cm^2 and the Height (1 mg/l, 2 °C, 9 days) was 7.3 cm. For the same molecule, the Weight of root (1 mg/l, 2 °C, 9 days) was 3.2 g, the Area of leaf (1 mg/l, 2 °C, 12 days) was 13.1 cm^2 and the Height (1 mg/l, 2 °C, 12 days) was 7.6 cm. It also gave a Number of leaf (1 mg/l, 2 °C, 12 days) of 3, a Number of tiller (1 mg/l, 2 °C, 12 days) of 3 and a Weight of root (1 mg/l, 2 °C, 12 days) of 3.9 g. For the same molecule, the Area of leaf (1 mg/l, 3 °C, 3 days) was 10.4 cm^2, the Height (1 mg/l, 3 °C, 3 days) was 7.1 cm and the Weight of root (1 mg/l, 3 °C, 3 days) was 2.5 g. For the same molecule, the Area of leaf (1 mg/l, 3 °C, 6 days) was 12.2 cm^2, the Height (1 mg/l, 3 °C, 6 days) was 7.3 cm and the Weight of root (1 mg/l, 3 °C, 6 days) was 2.6 g. For the same molecule, the Area of leaf (1 mg/l, 3 °C, 9 days) was 12.6 cm^2, the Height (1 mg/l, 3 °C, 9 days) was 7.5 cm and the Weight of root (1 mg/l, 3 °C, 9 days) was 2.9 g. For the same molecule, the Area of leaf (1 mg/l, 3 °C, 12 days) was 13.2 cm^2, the Height (1 mg/l, 3 °C, 12 days) was 7.6 cm and the Number of leaf (1 mg/l, 3 °C, 12 days) was 3. It also gave a Number of tiller (1 mg/l, 3 °C, 12 days) of 2, a Weight of root (1 mg/l, 3 °C, 12 days) of 2.9 g and an Area of leaf (1 mg/l, 4 °C, 3 days) of 10.9 cm^2. For the same molecule, the Height (1 mg/l, 4 °C, 3 days) was 7.1 cm, the Weight of root (1 mg/l, 4 °C, 3 days) was 2.5 g and the Area of leaf (1 mg/l, 4 °C, 6 days) was 12 cm^2. It also gave a Height (1 mg/l, 4 °C, 6 days) of 7.5 cm, a Weight of root (1 mg/l, 4 °C, 6 days) of 2.6 g and an Area of leaf (1 mg/l, 4 °C, 9 days) of 13.4 cm^2. It also gave a Height (1 mg/l, 4 °C, 9 days) of 7.5 cm, a Weight of root (1 mg/l, 4 °C, 9 days) of 3.0 g and an Area of leaf (1 mg/l, 4 °C, 12 days) of 14 cm^2. The Height (1 mg/l, 4 °C, 12 days) was 7.7 cm, the Number of leaf (1 mg/l, 4 °C, 12 days) was 3 and the Number of tiller (1 mg/l, 4 °C, 12 days) was 2. It also gave a Weight of root (1 mg/l, 4 °C, 12 days) of 3.2 g, an Area of leaf (1 mg/l, 5 °C, 3 days) of 11.1 cm^2 and a Height (1 mg/l, 5 °C, 3 days) of 7.7 cm. For the same molecule, the Weight of root (1 mg/l, 5 °C, 3 days) was 2.9 g, the Area of leaf (1 mg/l, 5 °C, 6 days) was 13.6 cm^2 and the Height (1 mg/l, 5 °C, 6 days) was 8.0 cm. For the same molecule, the Weight of root (1 mg/l, 5 °C, 6 days) was 3.6 g, the Area of leaf (1 mg/l, 5 °C, 9 days) was 18.9 cm^2 and the Height (1 mg/l, 5 °C, 9 days) was 8.8 cm. The Weight of root (1 mg/l, 5 °C, 9 days) was 3.7 g, the Area of leaf (1 mg/l, 5 °C, 12 days) was 20 cm^2 and the Height (1 mg/l, 5 °C, 12 days) was 8.9 cm. The Number of leaf (1 mg/l, 5 °C, 12 days) was 3, the Number of tiller (1 mg/l, 5 °C, 12 days) was 2 and the Weight of root (1 mg/l, 5 °C, 12 days) was 4.5 g. For the same molecule, the “Effects on resistance to low temperature compared among analogues” value (in vivo) was “more than those of BR2, BR3 and BR4”.

From patent publication US9326506B2, “Preparation method, agricultural composition and applications of natural brassinolide analogs” (CHENGDU NEWSUN CROPSCIENCE CO., LTD, priority 2012, dated 2016)
